Legend:
A549 = assay: Cytotoxicity against human A549 cells assessed as cell growth at 1 mM after 1 to 11 days by MTT assay; assay type: functional; conditions: read-out: Activity
SK-MEL-28 [1] = assay: Cytotoxicity against human SK-MEL-28 cells assessed as cell growth at 100 uM after 1 to 11 days by MTT assay; assay type: functional; conditions: read-out: Activity
NCI-H226 [2] = assay: Cytotoxicity against human NCI-H226 cells after 1 to 11 days by MTT assay; assay type: functional
MDA-MB-231 = assay: Cytotoxicity against human MDA-MB-231 cells assessed as cell growth at 1 mM after 1 to 11 days by MTT assay; assay type: functional; conditions: read-out: Activity
NCI-H522 = assay: Cytotoxicity against human NCI-H522 cells assessed as cell growth at 10 uM after 1 to 11 days by MTT assay; assay type: functional; conditions: read-out: Activity
RXF 393 = assay: Cytotoxicity against human […] cells assessed as cell growth at 1 uM after 1 to 11 days by MTT assay; assay type: functional; conditions: read-out: Activity
HCT-116 = assay: Cytotoxicity against human HCT116 cells after 1 to 11 days by MTT assay; assay type: functional
T47D = assay: Cytotoxicity against human T47D cells after 1 to 11 days by MTT assay; assay type: functional
A498 = assay: Cytotoxicity against human A498 cells assessed as cell growth at 10 uM after 1 to 11 days by MTT assay; assay type: functional; conditions: read-out: Activity
MDA-MB-468 = assay: Cytotoxicity against human MDA-MB-468 cells assessed as cell growth at 100 uM after 1 to 11 days by MTT assay; assay type: functional; conditions: read-out: Activity
NCI-H226 [3] = assay: Cytotoxicity against human NCI-H226 cells assessed as cell growth at 0.1 uM after 1 to 11 days by MTT assay; assay type: functional; conditions: read-out: Activity
SK-OV-3 = assay: Cytotoxicity against human SKOV3 cells after 1 to 11 days by MTT assay; assay type: functional
KM12 = assay: Cytotoxicity against human KM12 cells assessed as cell growth at 0.1 uM after 1 to 11 days by MTT assay; assay type: functional; conditions: read-out: Activity
OVCAR-5 = assay: Cytotoxicity against human OVCAR5 cells after 1 to 11 days by MTT assay; assay type: functional
HOP-92 = assay: Cytotoxicity against human HOP92 cells assessed as cell growth at 100 uM after 1 to 11 days by MTT assay; assay type: functional; conditions: read-out: Activity
NCI-H322M = assay: Cytotoxicity against human NCI-H322M cells assessed as cell growth at 1 uM after 1 to 11 days by MTT assay; assay type: functional; conditions: read-out: Activity
Malme-3M [4] = assay: Cytotoxicity against human MALME-3M cells after 1 to 11 days by MTT assay; assay type: functional
Malme-3M [5] = assay: Cytotoxicity against human MALME-3M cells assessed as cell growth at 100 uM after 1 to 11 days by MTT assay; assay type: functional; conditions: read-out: Activity
UACC-62 = assay: Cytotoxicity against human UACC62 cells after 1 to 11 days by MTT assay; assay type: functional
SF-539 = assay: Cytotoxicity against human SF539 cells assessed as cell growth at 0.1 uM after 1 to 11 days by MTT assay; assay type: functional; conditions: read-out: Activity
UACC-257 = assay: Cytotoxicity against human UACC257 cells assessed as cell growth at 10 uM after 1 to 11 days by MTT assay; assay type: functional; conditions: read-out: Activity
U-251 = assay: Cytotoxicity against human U251 cells assessed as cell growth at 10 uM after 1 to 11 days by MTT assay; assay type: functional; conditions: read-out: Activity
TK-10 = assay: Cytotoxicity against human TK10 cells assessed as cell growth at 0.1 uM after 1 to 11 days by MTT assay; assay type: functional; conditions: read-out: Activity
HL-60(TB) [6] = assay: Cytotoxicity against human HL-60(TB) cells assessed as cell growth at 100 uM after 1 to 11 days by MTT assay; assay type: functional; conditions: read-out: Activity
NCI-H460 [7] = assay: Cytotoxicity against human NCI-H460 cells assessed as cell growth at 100 uM after 1 to 11 days by MTT assay; assay type: functional; conditions: read-out: Activity
M14 [8] = assay: Cytotoxicity against human M14 cells assessed as cell growth at 1 uM after 1 to 11 days by MTT assay; assay type: functional; conditions: read-out: Activity
SK-MEL-28 [9] = assay: Cytotoxicity against human SK-MEL-28 cells assessed as cell growth at 1 mM after 1 to 11 days by MTT assay; assay type: functional; conditions: read-out: Activity
COLO 205 = assay: Cytotoxicity against human COLO205 cells assessed as cell growth at 1 mM after 1 to 11 days by MTT assay; assay type: functional; conditions: read-out: Activity
NCI-H460 [10] = assay: Cytotoxicity against human NCI-H460 cells after 1 to 11 days by MTT assay; assay type: functional
HCC 2998 = assay: Cytotoxicity against human HCC2998 cells assessed as cell growth at 0.1 uM after 1 to 11 days by MTT assay; assay type: functional; conditions: read-out: Activity
SR = assay: Cytotoxicity against human SR cells assessed as cell growth at 1 uM after 1 to 11 days by MTT assay; assay type: functional; conditions: read-out: Activity
[11] = molecular target: Glycogen synthase kinase-3 beta (Homo sapiens) (UniProt P49841); assay: Inhibition of human GSK3-beta assessed as residual enzyme activity at 3 uM after 40 mins by scintillation counting
M14 [12] = assay: Cytotoxicity against human M14 cells after 1 to 11 days by MTT assay; assay type: functional
NCI/ADR-RES = assay: Cytotoxicity against human NCI/ADR-RES cells assessed as cell growth at 100 uM after 1 to 11 days by MTT assay; assay type: functional; conditions: read-out: Activity
MCF7 = assay: Cytotoxicity against human MCF7 cells assessed as cell growth at 1 mM after 1 to 11 days by MTT assay; assay type: functional; conditions: read-out: Activity
HOP-62 = assay: Cytotoxicity against human HOP62 cells assessed as cell growth at 0.1 uM after 1 to 11 days by MTT assay; assay type: functional; conditions: read-out: Activity
SN12C = assay: Cytotoxicity against human SN12C cells assessed as cell growth at 1 uM after 1 to 11 days by MTT assay; assay type: functional; conditions: read-out: Activity
PC-3 = assay: Cytotoxicity against human PC3 cells assessed as cell growth at 0.1 uM after 1 to 11 days by MTT assay; assay type: functional; conditions: read-out: Activity
HL-60(TB) [13] = assay: Cytotoxicity against human HL-60(TB) cells assessed as cell growth at 0.1 uM after 1 to 11 days by MTT assay; assay type: functional; conditions: read-out: Activity
SNB-75 = assay: Cytotoxicity against human SNB75 cells assessed as cell growth at 1 uM after 1 to 11 days by MTT assay; assay type: functional; conditions: read-out: Activity
IGROV-1 = assay: Cytotoxicity against human IGROV1 cells assessed as cell growth at 1 mM after 1 to 11 days by MTT assay; assay type: functional; conditions: read-out: Activity
MOLT-4 = assay: Cytotoxicity against human MOLT4 cells assessed as cell growth at 10 uM after 1 to 11 days by MTT assay; assay type: functional; conditions: read-out: Activity
[14] = read-out: LC50 (the source's name)

Sequence of Glycogen synthase kinase-3 beta (Homo sapiens) (P49841 whole entry, looked up): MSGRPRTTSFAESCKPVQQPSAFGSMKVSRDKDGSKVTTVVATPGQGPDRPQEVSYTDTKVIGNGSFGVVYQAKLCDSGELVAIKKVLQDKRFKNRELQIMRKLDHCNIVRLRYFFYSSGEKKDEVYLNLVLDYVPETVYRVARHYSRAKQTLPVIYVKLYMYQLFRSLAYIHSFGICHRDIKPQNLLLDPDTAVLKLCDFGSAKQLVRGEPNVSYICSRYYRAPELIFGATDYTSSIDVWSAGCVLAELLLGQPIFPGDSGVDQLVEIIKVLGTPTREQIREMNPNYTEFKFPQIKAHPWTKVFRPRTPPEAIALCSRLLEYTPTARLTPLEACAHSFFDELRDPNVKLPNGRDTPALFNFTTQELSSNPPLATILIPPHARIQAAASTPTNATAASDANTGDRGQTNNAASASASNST

For `O=C1Nc2ncccc2/C1=C1/Nc2ccccc2/C1=N\O`, the growth at 1000 µM (A549) was 13%, the growth at 100 µM (SK-MEL-28 [1]) was 54% and the GI50 (NCI-H226 [2]) was 1.14 µM. The TGI (NCI-H226 [2]) was > 100 µM, the CC50 (NCI-H226 [2]; [14]) was > 100 µM and the growth at 1000 µM (MDA-MB-231) was 2%. For the same molecule, the growth at 10 µM (NCI-H522) was 99%, the growth at 1 µM (RXF 393) was 94% and the TGI (HCT-116) was > 100 µM. For the same molecule, the CC50 (HCT-116; [14]) was > 100 µM, the GI50 (T47D) was 2.03 µM and the TGI (T47D) was > 100 µM. For the same molecule, the CC50 (T47D; [14]) was > 100 µM, the growth at 10 µM (A498) was 63% and the growth at 100 µM (MDA-MB-468) was 18%. For the same molecule, the growth at 0.1 µM (NCI-H226 [3]) was 86%, the GI50 (SK-OV-3) was 1.79 µM and the CC50 (SK-OV-3; [14]) was > 100 µM. For the same molecule, the growth at 0.1 µM (KM12) was 95%, the GI50 (OVCAR-5) was 93.9 µM and the TGI (OVCAR-5) was > 100 µM. For the same molecule, the CC50 (OVCAR-5; [14]) was > 100 µM, the growth at 100 µM (HOP-92) was 36% and the growth at 1 µM (NCI-H322M) was 82%. For the same molecule, the GI50 (Malme-3M [4]) was 3.36 µM, the TGI (Malme-3M [4]) was 172 µM and the CC50 (Malme-3M [4]; [14]) was > 100 µM. For the same molecule, the growth at 100 µM (Malme-3M [5]) was 13%, the GI50 (UACC-62) was 3.49 µM and the TGI (UACC-62) was > 100 µM. The CC50 (UACC-62; [14]) was > 100 µM, the growth at 0.1 µM (SF-539) was 89% and the growth at 10 µM (UACC-257) was 114%. For the same molecule, the growth at 10 µM (U-251) was 89%, the growth at 0.1 µM (TK-10) was 101% and the growth at 100 µM (HL-60(TB) [6]) was 38%. The growth at 100 µM (NCI-H460 [7]) was 41%, the growth at 1 µM (M14 [8]) was 95% and the growth at 1000 µM (SK-MEL-28 [9]) was 47%. The growth at 1000 µM (COLO 205) was 23%, the GI50 (NCI-H460 [10]) was 7.02 µM and the TGI (NCI-H460 [10]) was > 100 µM. The CC50 (NCI-H460 [10]; [14]) was > 100 µM, the growth at 0.1 µM (HCC 2998) was 93% and the growth at 1 µM (SR) was 89%. For the same molecule, the Activity [11] was 18%, the GI50 (M14 [12]) was 7.95 µM and the TGI (M14 [12]) was > 100 µM. The CC50 (M14 [12]; [14]) was > 100 µM, the growth at 100 µM (NCI/ADR-RES) was 57% and the growth at 1000 µM (MCF7) was 41%. The growth at 0.1 µM (HOP-62) was 102%, the growth at 1 µM (SN12C) was 89% and the growth at 0.1 µM (PC-3) was 96%. For the same molecule, the growth at 0.1 µM (HL-60(TB) [13]) was 103%, the growth at 1 µM (SNB-75) was 90% and the growth at 1000 µM (IGROV-1) was 12%. For the same molecule, the growth at 10 µM (MOLT-4) was 70%.
